Read-outs that look alike come from different tables or passages of the source.
Columns and labels:
HCT116 WT cells = assay: HCT116 WT cell line proliferation (CellTiter-Glo cell viability, 6 days); type: cell-based; details: HCT116 WT (parent) cells, 6 days of treatment, CellTiter-Glo cell viability, read-out: HCT-116 WT IC50
In short: (§1)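 Isogenic HCT116 pair (both MTAP alleles knocked out vs parent) in RPMI 1640 + 10% FBS, seeded overnight at 37° C, 5% CO2, then exposed 6 days to 8- or 9-point 1:3 dilutions from 1 or 10 μM. CellTiter-Glo luminescence; IC50 from sigmoidal fit, Hill slope fixed −1, top 100%, or 4-parameter logistic.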

HCT116 MTAP null cells = assay: HCT116 MTAP null cell line proliferation (CellTiter-Glo cell viability, 6 days); type: cell-based; details: HCT116 MTAP null cells, 6 days of treatment, CellTiter-Glo cell viability, read-out: HCT-116 MTAP null IC50
In short: as §1

Q: How did the IC50 (HCT116 WT cells; Homo sapiens, HCT-116, 144 h) turn out when C[C@H]1COC[C@@H](c2ccc(C(F)(F)F)nc2)N1C(=O)c1cc2c3c(c(N)nc2cn1)COC3 (racemic) [Example 340, (4-amino-1,3-dihydrofuro[3,4-c][1,7]naphthyridin-8-yl)((3R,5S)-3-methyl-5-(6-(trifluoromethyl)-3-pyridinyl)-4-morpholinyl)methanone and (4-amino-1,3-dihydrofuro[3,4-c][1,7]naphthyridin-8-yl)((3S,5R)-3-methyl-5-(6-(trifluoromethyl)-3-pyridinyl)-4-morpholinyl)methanone] was run?
A: 6.45 µM

Q: And the IC50 (HCT116 MTAP null cells; HCT116-MTAP null, 144 h)?
A: 0.071 µM

Q: Nc1nc2ccc(C(=O)N3CCOCC3c3ccc(F)c(OC(F)(F)F)c3)cc2c2c1COC2 (racemic) [Example 341, (4-amino-1,3-dihydrofuro[3,4-c]quinolin-8-yl)((3R)-3-(4-fluoro-3-(trifluoromethoxy)phenyl)-4-morpholinyl)methanone and (4-amino-1,3-dihydrofuro[3,4-c]quinolin-8-yl)((3S)-3-(4-fluoro-3-(trifluoromethoxy)phenyl)-4-morpholinyl)methanone] was tested. Which IC50 (HCT116 WT cells; Homo sapiens, HCT-116, 144 h) did it give?
A: 13.2 µM

Q: And the IC50 (HCT116 MTAP null cells; HCT116-MTAP null, 144 h)?
A: 0.871 µM

Q: Which results are given for Nc1nc2cc(F)c(C(=O)N3CCOCC3c3ccc(F)c(C(F)(F)F)c3)cc2c2c1COC2 (racemic) [Example 342, (4-amino-7-fluoro-1,3-dihydrofuro[3,4-c]quinolin-8-yl)((3R)-3-(4-fluoro-3-(trifluoromethyl)phenyl)-4-morpholinyl)methanone and (4-amino-7-fluoro-1,3-dihydrofuro[3,4-c]quinolin-8-yl)((3S)-3-(4-fluoro-3-(trifluoromethyl)phenyl)-4-morpholinyl)methanone]?
A: IC50 (HCT116 WT cells): 6.17 µM; IC50 (HCT116 MTAP null cells): 0.117 µM

Q: How did the IC50 (HCT116 WT cells; Homo sapiens, HCT-116, 144 h) turn out when C[C@H]1OCc2c1c(N)nc1ccc(C(=O)N3CCOC[C@H]3c3ccc(C(F)(F)F)cn3)cc21 (racemic) [Example 343, ((3R)-4-amino-3-methyl-1,3-dihydrofuro[3,4-c]quinolin-8-yl)((3R)-3-(5-(trifluoromethyl)-2-pyridinyl)-4-morpholinyl)methanone and ((3R)-4-amino-3-methyl-1,3-dihydrofuro[3,4-c]quinolin-8-yl)((3S)-3-(5-(trifluoromethyl)-2-pyridinyl)-4-morpholinyl)methanone] was run?
A: 16.2 µM

Q: What about the IC50 (HCT116 MTAP null cells; HCT116-MTAP null, 144 h) of the same compound?
A: 0.308 µM

Q: Nc1nc2cc(Cl)c(C(=O)N3CCOCC3c3ccc(C(F)(F)F)cn3)cc2c2c1COC2 (racemic) [Example 344, (4-amino-7-chloro-1,3-dihydrofuro[3,4-c]quinolin-8-yl)((3R)-3-(5-(trifluoromethyl)-2-pyridinyl)-4-morpholinyl)methanone and (4-amino-7-chloro-1,3-dihydrofuro[3,4-c]quinolin-8-yl)((3S)-3-(5-(trifluoromethyl)-2-pyridinyl)-4-morpholinyl)methanone] was tested. Which IC50 (HCT116 WT cells; Homo sapiens, HCT-116, 144 h) did it give?
A: 1.41 µM

Q: What about the IC50 (HCT116 MTAP null cells; HCT116-MTAP null, 144 h) of the same compound?
A: 0.058 µM

Q: How did the IC50 (HCT116 WT cells; Homo sapiens, HCT-116, 144 h) turn out when Nc1nc2cnc(C(=O)N3CCOCC3c3ccc(F)c(OC(F)(F)F)c3)cc2c2c1COC2 (racemic) [Example 345, (4-amino-1,3-dihydrofuro[3,4-c][1,7]naphthyridin-8-yl)((3R)-3-(4-fluoro-3-(trifluoromethoxy)phenyl)-4-morpholinyl)methanone and (4-amino-1,3-dihydrofuro[3,4-c][1,7]naphthyridin-8-yl)((3S)-3-(4-fluoro-3-(trifluoromethoxy)phenyl)-4-morpholinyl)methanone] was run?
A: 19.1 µM

Q: And the IC50 (HCT116 MTAP null cells; HCT116-MTAP null, 144 h)?
A: 0.346 µM

Q: How did the IC50 (HCT116 WT cells; Homo sapiens, HCT-116, 144 h) turn out when Nc1nc2cc(Cl)c(C(=O)N3CCOCC3c3ccc(F)c(OC(F)(F)F)c3)cc2c2c1COC2 (racemic) [Example 346, (4-amino-7-chloro-1,3-dihydrofuro[3,4-c]quinolin-8-yl)((3R)-3-(4-fluoro-3-(trifluoromethoxy)phenyl)-4-morpholinyl)methanone and (4-amino-7-chloro-1,3-dihydrofuro[3,4-c]quinolin-8-yl)((3S)-3-(4-fluoro-3-(trifluoromethoxy)phenyl)-4-morpholinyl)methanone] was run?
A: 1.95 µM

Q: And the IC50 (HCT116 MTAP null cells; HCT116-MTAP null, 144 h)?
A: 0.062 µM
